In patent US20110039825A1, “LIGANDS OF ALPHA-ADRENOCEPTORS, DOPAMINE, HISTAMINE, IMIDAZOLINE AND SEROTONIN RECEPTORS AND THEIR USE” (Alla Chem, LLC, priority 2007, published 2011):

How the values were obtained:
mice = test: Mice Training in Morris Water Maze (Scopolamine); format: in vivo; conditions: unitary introduction of active ingredient
Procedure: Mice Training in Morris Water Maze. A round pool which was filled with water at 20-22° C. was used. A round ceramic platform of 14 cm height was placed in the pool. Animals's behavior was registered with automated computer videosystem in combination with software package of movement analysis Any-maze (Stoelting Co., US). Before testing mice suitable for training were selected. That was done by placing the platform 1 cm above the water level and putting an animal on the platform for 20 seconds. Then the mouse was sunk into the water on the opposite side of the pool, allowed to find the platform and climbed it within 60 seconds, where it was left for additional 20 seconds. After that the mouse was repeatedly immersed into water on the opposite side of the pool and allowed to look for platform. If it failed in finding the platform within 60 seconds the experimentator helped it to find the platform and climb it. If the mice could not find the platform itself in two consecutive attempts it was excluded from experiment.
During the next two days the platform was placed 0.5 centimeter lower the water level. Every day the mice were given four attempts for finding the platform within 60 seconds. The time interval between the attempts was 20 seconds, during which the mice stayed on the platform. Every day before the first attempt mouse was placed on the platform for 20 seconds. The time needed for finding and climbing the platform was registered. The animals were sunk in water in 3 different places on the side of the pool opposite to platform. On each day of two-day testing 35-40 minutes before the beginning of training the mice were injected intraintestinally with physiological solution, Scopolamine or Scopolamine in combination with investigated compound. At least 8 animals were used in each group.
On the third day the platform was removed and each animal was placed one time in the pool for a period of 60 seconds. The time each mouse spent in the area where the platform had been located during the previous days was registered. This time interval was regarded as a measure of effectiveness of training fulfilled during the previous two days. The testing was carried out during the day time in isolated laboratory using “white noise” at level of about 70 decibel above the human hearing threshold.

[1] = molecular target: T1, recombinant human 5-HT2C receptor (Homo sapiens, UniProt P28335); test: radioligand binding to serotonin receptor 5-HT2C ([3H] Mesulergine)
T1 construct: expressed in transfected cells; host or cells: CHO-K1
T1 sequence (P28335 33-458): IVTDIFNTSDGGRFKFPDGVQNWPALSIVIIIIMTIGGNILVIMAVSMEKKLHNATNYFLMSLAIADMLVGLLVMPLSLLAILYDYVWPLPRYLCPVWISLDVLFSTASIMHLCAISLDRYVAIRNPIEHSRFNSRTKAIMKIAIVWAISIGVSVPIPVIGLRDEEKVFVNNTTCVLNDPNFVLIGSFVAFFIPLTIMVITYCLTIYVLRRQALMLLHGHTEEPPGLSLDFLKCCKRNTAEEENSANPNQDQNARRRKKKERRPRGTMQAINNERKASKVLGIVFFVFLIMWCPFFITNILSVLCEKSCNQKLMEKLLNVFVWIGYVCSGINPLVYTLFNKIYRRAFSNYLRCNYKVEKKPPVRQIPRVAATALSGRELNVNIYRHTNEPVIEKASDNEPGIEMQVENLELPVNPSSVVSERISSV
Excerpt: J. Neurochem. 69: 1449-1458, 1997]. […] SB242084 is used as positive control.

Cc1ccc2c(c1)c1c(n2CCc2ccccn2)CCN(C)C1.Cl.Cl [1.1.2(2-3)•2HCl]
memory disorders caused by Scopolamine in Morris water maze (mice): decreasing memory disorders coused by Scopalomine

Cc1ccc2c(c1)[C@H]1CN(C)CCC[C@@H]1N2CCc1cccnc1 [1.6.2(10)•3HCl]
inhibition at 1 µM ([1]; ligand concentration 1 μM): 99%

CN1CCc2c(c3ccccc3n2Cc2ccccc2)C1 [1.9(1)•½NDSA, bis-(5-benzyl-2-methyl-2,3,4,5-tetrahydro-1H-pyrido[4,3-b]indole) naphtalene-1,5-disulfonate]
IC50 [1]: 13.5 nM
Ki [1]: 7.08 nM
nH 5-HT2C [1]: 0.987
